Measured values as given in ChEMBL document CHEMBL1138942, “Inactivation of GABA transaminase by 4-acryloylphenol” (Bioorg Med Chem Lett, 2006).

Assays:
[1] = (§1) Inhibition of GABA-T; parameters: species or system Rattus norvegicus
[2] = species: Rattus norvegicus; test: as §1

- Ki [1]: 470 µM
- Activity [2]: Time-dependent effect
Structure (SMILES): C=CC(=O)c1ccc(O)cc1
